Measured values published in patent publication US20220322656A1, “PRESERVATION OF ORGANS FOR TRANSPLANT AND NON-TRANSPLANT SURGERIES” (The Regents of the University of Michigan, priority 2019, published 2022).
Entries after “also recorded” stand apart in the source; their conditions may differ.

Columns and labels:
murine donor hearts [1] = test: Hemodynamics (max dp/dt, min dp/dt) of murine donor hearts after cold storage and ex-vivo reperfusion
Il1 = Il1 protein level in donor heart after cold storage (western blot); parameters: species or system murine
Protocol: (§1) Experiments were conducted during development of embodiments herein to examine the effect of VPA on donor heart function with prolonged cold storage of donor heart. To address this, murine donor hearts were perfused with 7-8 mL HTK solution alone or HTK with 20 mM VPA and then stored the heart for 0, 4, and 8 hours.
(§2) Experiments were conducted during development of embodiments herein to determine whether pharmacological inhibition of MR signaling improves the heart function after prolonged cold storage period. To address this, murine donor hearts were perfused with 7-8 mL HTK solution alone or HTK with 25 μM spironolactone and then stored the heart for 0, 8 and 12 hours.

Myd88 = Myd88 protein level in donor heart after cold storage (western blot); parameters: species or system murine
Protocol: as §1, §2

murine donor hearts [2] = test: Hemodynamics (max dp/dt, min dp/dt) of murine donor hearts after cold storage and ex-vivo reperfusion; remark: listed apart in the source
Protocol: FIG. 5A-C. […] The max dp/dt (A) and min dp/dt (B) were calculated by averaging the max/min dp/dt in 20 minutes stable period after different cold storage periods followed by perfusion. The max dp/dt or −min dp/dt of hearts were normalized to percentage of time 0. **p<0.01. (C) VPA suppress the Ill and Myd88 protein level induced by cold storage.
FIG. 9A-C. […] Following spironolactone treatment, much improved (A) max dp/dt and (B) min dp/dt after prolonged storage after 8 hours and 12 hours was observed compared to HTK alone. N=4. **p<0.01, ***p<0.001 (C) Spironolactone suppress the Il1 and Myd88 protein level induced by cold storage.
as §1
Murine donor hearts were isolated and preserved in HTK solution for 0 h, 4 h and 8 h. The cardiac hemodynamics were then examined in an ex-vivo perfusion system. […] This was accompanied by increasing apoptotic cell death by TUNEL staining (FIG. 6C). Occurrence of cell death processes such as apoptosis with increasing storage duration is corroborated by Increased expression of cleaved poly (ADP-ribose) polymerase (PARP), a marker of cell death (FIG. 6D).
as §2

human donor hearts = test: RNA-Seq gene set enrichment analysis of human donor hearts during cold (4° C.) storage
Protocol: For treatment of human donor hearts, 6 grams of VPA was dissolved in 2 liters of HTK preservation solution and also used 2 liters of HTK solution as control. The solutions were then infused this through the aortic root of human donor hearts (n=3). RNA-Seq was performed to study the transcriptomic effect of VPA on the human heart during cold (4° C.) storage. Total RNA was isolated from the heart tissue stored at 0 h, 4 h and 8 h time points. Gene set enrichment analysis was then performed at different time points with or without VPA treatment.

[3] = test system: donor hearts from C57BL/6J mice; test: Reanimation of murine donor hearts on ex-vivo Langendorff apparatus after cold storage; details: up to 5 hours of cold storage, vs HTK solution
Protocol: From murine heart experiments, donor hearts from C57BL/6J mice were preserved with either HTK solution or VPA+HTK solution and then stored in ice as per clinical protocols. The cold storage time was varied from 0 hour to 9 hours before reperfusing on an ex-vivo Langendorff apparatus.

pig hearts = test: Ex-vivo isolated pig heart perfusion after 6 hours of ice storage in HTK with or without VPA; details: 6 grams VPA in 2 liters HTK, 6 hours on ice
Protocol: FIG. 1. Coronary vascular resistance after two hours of ex-vivo pig heart perfusion. […] 6 grams of VPA was dissolved in 2 liters of heart preservation solution (histidine-tryptophan-ketoglutarate solution, HTK) and then infused this through the aortic root of freshly sacrificed pig hearts (n=3). For the control group (n=3) only HTK solution was infused. HTK solution is one of the standard donor heart preservation solutions used clinically for heart transplantation. The pig heart was then stored in ice after mechanical arrest with HTK solution as per standard transplant protocol for a total of 6 hours. After 6 hours, the hearts were retrieved and perfused with pig blood in an ex-vivo isolated heart perfusion model. The hearts were then examined for cardiac performance.

[4] = Alda-1 vs HTK alone, after 8 h of cold storage
[5] = canrenone vs HTK alone, after 8 hours of preservation
[6] = canrenone vs HTK alone, prolonged storage after 4 hours and 8 hours
[7] = spironolactone, western blot, listed as spironolactone
[8] = HTK with 25 μM spironolactone vs HTK alone, after 8 h and 12 h of cold storage
[9] = HTK with 25 μM spironolactone vs HTK alone, after 8 h and 12 h of cold storage, listed as spironolactone
[10] = HTK with 20 mM VPA vs HTK alone, after 4 h and 8 h of cold storage

SMILES: O=C(NCc1ccc2c(c1)OCO2)c1c(Cl)cccc1Cl [Alda-1, N-(1,3-benzodioxo1-5-ylmethyl)-2,6-dichlorobenzamide]
- max dp/dt (donor heart contractility) (murine donor hearts [1]; [4]): dramatically improves; also recorded: improved
- min dp/dt (donor heart relaxation) (murine donor hearts [1]; [4]): dramatically improves; also recorded: improved

SMILES: C[C@]12CCC(=O)C=C1C=C[C@@H]1[C@@H]2CC[C@@]2(C)[C@H]1CC[C@@]21CCC(=O)O1 [Canrenone, canrenone]
- max dp/dt (donor heart contraction) (murine donor hearts [1]; [5]): significantly improves
- min dp/dt (donor heart relaxation) (murine donor hearts [1]; [5]): significantly improves
- max dp/dt (murine donor hearts [1]; [6]): much improved
- min dp/dt (murine donor hearts [1]; [6]): much improved

SMILES: CC(=O)S[C@@H]1CC2=CC(=O)CC[C@]2(C)[C@H]2CC[C@@]3(C)[C@@H](CC[C@@]34CCC(=O)O4)[C@H]12 [Spironolactone, spironolactone]
- Il1 protein level (Il1; spironolactone, western blot): suppress
- Il1 protein level (Il1; [7]): significantly reduced
- Myd88 protein level (Myd88; spironolactone, western blot): suppress
- Myd88 protein level (Myd88; [7]): significantly reduced
- max dp/dt (donor heart contractility) (murine donor hearts [2]; [8]): much improved
- min dp/dt (donor heart relaxation) (murine donor hearts [2]; [8]): much improved
- max dp/dt (donor heart contractility) (murine donor hearts [2]; [9]): dramatically improved
- min dp/dt (donor heart relaxation) (murine donor hearts [2]; [9]): dramatically improved

SMILES: CCCC(CCC)C(=O)O [VPA, Valproic acid]
- NES, Inflammatory response (human donor hearts; LV, VPA vs HTK Only): −1.47
- NES, Interferon gamma response (human donor hearts; LV, VPA vs HTK Only): −1.65
- NES, TNFa signaling via NFkB (human donor hearts; LV, VPA vs HTK Only): −1.68
- accumulation of genes related to inflammatory response (human donor hearts; LV, during cold storage): significantly reduced
- NES, Inflammatory response (human donor hearts; RV, VPA vs HTK Only): −1.32
- NES, P53 pathway (human donor hearts; RV, VPA vs HTK Only): −1.25
- NES, TNFa signaling via NFkB (human donor hearts; RV, VPA vs HTK Only): −1.96
- activation of p53 proapoptotic pathway (human donor hearts; RV, during cold storage): reduced the activation
- expression of inflammatory response genes (human donor hearts; RV, during cold storage): reduced expression
- cardiac reanimation [3]: successful and comparable for both groups
- Il1 protein level (Il1; HTK with 20 mM VPA): suppress; also recorded: reduced protein level
- Myd88 protein level (Myd88; HTK with 20 mM VPA): suppress; also recorded: reduced protein level
- fibrillatory arrest during ex-vivo perfusion (pig hearts; pig hearts (n=3), control 2 out of 3): None
- Coronary vascular resistance / coronary vascular tone (pig hearts; pig hearts, after two hours of ex-vivo perfusion, vs HTK control): improved; also recorded: trend toward better maintenance
- max dp/dt (donor heart contractility) (murine donor hearts [2]; [10]): improves donor heart function; also recorded: dramatically improved
- min dp/dt (donor heart relaxation) (murine donor hearts [2]; [10]): improves donor heart function; also recorded: dramatically improved
